Data: ChEMBL document CHEMBL1136038, “Parallel solution- and solid-phase synthesis of spiropyrrolo-pyrroles as novel neurokinin receptor ligands” (Bioorg Med Chem Lett, 2002)

Biological target: Substance-P receptor (Homo sapiens, UniProt P25103)
Assay: Affinity for human Tachykinin receptor 1 expressed in CHO cells
Assay type: cell-based

Sequence of Substance-P receptor (P25103 whole entry): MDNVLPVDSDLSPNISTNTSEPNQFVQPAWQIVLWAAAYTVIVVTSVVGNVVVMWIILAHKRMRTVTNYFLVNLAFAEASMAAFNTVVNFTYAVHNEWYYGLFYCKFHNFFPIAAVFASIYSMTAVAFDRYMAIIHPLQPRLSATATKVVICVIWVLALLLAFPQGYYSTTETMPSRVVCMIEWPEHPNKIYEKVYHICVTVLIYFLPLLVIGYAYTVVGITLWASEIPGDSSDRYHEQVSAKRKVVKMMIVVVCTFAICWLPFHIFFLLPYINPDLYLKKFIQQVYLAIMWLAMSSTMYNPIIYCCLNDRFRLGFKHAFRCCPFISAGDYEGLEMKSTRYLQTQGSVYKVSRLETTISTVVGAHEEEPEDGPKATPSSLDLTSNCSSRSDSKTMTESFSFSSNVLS

Ki | Compound
30.9 nM | O=C1COc2ccc(S(=O)(=O)N3CCC4(CC3)C3C(=O)N(c5ccccc5)C(=O)C3CN4C(=O)c3cc(C(F)(F)F)cc(C(F)(F)F)c3)cc2N1 (configuration not stated)
302 nM | CC(C)(C)C(=O)N1CCC2(CC1)C1C(=O)N(c3ccccc3)C(=O)C1CN2C(=O)c1cc(C(F)(F)F)cc(C(F)(F)F)c1 (configuration not stated)
501 nM | O=C1C2CN(C(=O)c3sc4ccccc4c3Cl)C3(CCNCC3)C2C(=O)N1Cc1cc(C(F)(F)F)cc(C(F)(F)F)c1 (configuration not stated)
513 nM | CN1C(=O)C2CN(Cc3cccs3)C3(CCN(C(=O)c4cc(C(F)(F)F)cc(C(F)(F)F)c4)CC3)C2C1=O (configuration not stated)
8.32 nM | O=C(c1cc(C(F)(F)F)cc(C(F)(F)F)c1)N1CCC2(CC1)C1C(=O)N(c3ccccc3)C(=O)C1CN2C(=O)CN1CCOCC1 (configuration not stated)
263 nM | CS(=O)(=O)N1CCC2(CC1)C1C(=O)N(Cc3cc(C(F)(F)F)cc(C(F)(F)F)c3)C(=O)C1CN2C(=O)c1ccc2ccccc2c1 (configuration not stated)
38.9 nM | CN1C(=O)C2CN(S(=O)(=O)c3ccc4ccccc4c3)C3(CCN(C(=O)c4cc(C(F)(F)F)cc(C(F)(F)F)c4)CC3)C2C1=O (configuration not stated)
30.2 nM | COc1ccc(OC)c(S(=O)(=O)N2CCC3(CC2)C2C(=O)N(c4ccccc4)C(=O)C2CN3C(=O)c2cc(C(F)(F)F)cc(C(F)(F)F)c2)c1 (configuration not stated)
75.9 nM | Cc1noc(C)c1S(=O)(=O)N1CCC2(CC1)C1C(=O)N(c3ccccc3)C(=O)C1CN2C(=O)c1cc(C(F)(F)F)cc(C(F)(F)F)c1 (configuration not stated)
5.13 nM | CS(=O)(=O)N1CC2C(=O)N(c3ccccc3)C(=O)C2C12CCN(C(=O)c1cc(C(F)(F)F)cc(C(F)(F)F)c1)CC2 (configuration not stated)
794 nM | COc1ccccc1C(=O)N1CC2C(=O)N(C)C(=O)C2C12CCN(C(=O)c1cc(C(F)(F)F)cc(C(F)(F)F)c1)CC2 (configuration not stated)
2290 nM | O=C1C2CN(C(=O)COCc3ccccc3)C3(CCNCC3)C2C(=O)N1Cc1cc(C(F)(F)F)cc(C(F)(F)F)c1 (configuration not stated)
